Measured values from ChEMBL document CHEMBL1201862, “PubChem BioAssay data set” (2004).
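In this assay, cells in 96-well plates receive the compound at five concentrations for 48 hours. Endpoints are linearly interpolated between the surrounding concentrations. The concentration for 50% growth inhibition is given as GI50.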 Activity calls are given as the source filed them. Cut-off read from the data, not from the text of the source: active = GI50 up to about 1.1 µM and inactive = higher.

Assays:
Test in all cases: growth of human tumour cells (NCI), 48 h
RXF 631 = tested on: RXF 631
KM-20L2 = tested on: KM-20L2
DMS-273 = tested on: DMS-273
M19-MEL = tested on: M19-MEL
HOP-18 = tested on: HOP-18
LXFL 529 = tested on: LXFL 529
DMS-114 = tested on: DMS-114
SNB-78 = tested on: SNB-78
XF498 = tested on: XF498

Measured: GI50

O=C(c1ccccc1)[C@H]1Nc2ccc(Cl)cc2[C@H]2OCCC[C@@H]12
inactive: RXF 631 17.9 µM | KM-20L2 16.7 µM | DMS-273 19.3 µM | M19-MEL 23 µM | HOP-18 18.5 µM | LXFL 529 12.1 µM | DMS-114 14.2 µM | SNB-78 24.1 µM | XF498 19.5 µM
